These results are taken from US20220323406A1, “METHODS AND COMPOSITIONS FOR DIFFERENTIATING STEM CELLS” (Massachusetts Institute of Technology, priority 2019, published 2022).

Molecules are shown by their SMILES.

Common to all, as to conditions: primary screen
The subject of assay [1] is ENR+CD organoids (ISC to Paneth cell differentiation). Kind of assay: Primary screen: CCh-stimulated lysozyme secretion LYZ.S, 2.5-D 384-well ENR+CD organoid differentiation. Format: cell-based, mouse. An excerpt:
(§1) High-throughput screening.

A further assay has as its system ENR+CD organoids. The experiment in a line: Primary screen: ATP (CellTiter-Glo 3D, CTG) cell number/viability, 2.5-D 384-well ENR+CD organoids.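 Also: compounds given at plating and again on day 3 over a 6-day differentiation from ENR+CV stem-cell-enriched precursors, ATP measured on day 6, plate median as control.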 In general terms: In ATP-based viability assays light output follows the ATP content of the culture.
Assay [2] deals with ENR+CD organoids (ISC to Paneth cell differentiation). The experiment in a line: Primary screen: basal (non-stimulated) lysozyme secretion LYZ.NS, 2.5-D 384-well ENR+CD organoid differentiation. Format: cell-based, mouse.
Excerpt: as §1

For the molecule `Cc1ccccc1C(C(=O)NC1CCCCC1)N(C(=O)Cn1ccnc1C)c1cccc(F)c1` (centres unmarked) [AGI-5198], the Dose.FC.LYZ.S in assay [1] (dose 0.08 uM) is 0.092 log2 fold change; in assay [1] (dose 0.40 uM) it was 0.185 log2 fold change; in assay [1] (dose 2.00 uM), 0.073 log2 fold change; in assay [1] (dose 10.00 uM) it was −0.005 log2 fold change. In addition, the Dose.FC.CTG with ENR+CD organoids (dose 0.08 uM) was 0.309 log2 fold change; in the assay with ENR+CD organoids (dose 0.40 uM) it was 0.154 log2 fold change; with ENR+CD organoids (dose 2.00 uM), 0.281 log2 fold change; in the assay with ENR+CD organoids (dose 10.00 uM) it was 0.336 log2 fold change. Besides, the Dose.FC.LYZ.NS in assay [2] (dose 0.08 uM) is 0.055 log2 fold change; in assay [2] (dose 0.40 uM), 0.042 log2 fold change; in assay [2] (dose 2.00 uM), 0.039 log2 fold change; in assay [2] (dose 10.00 uM), −0.007 log2 fold change. Also, the “Z.LYZ.NS (standard z score)” value is reported as 0.482 in assay [2] (dose 0.08 uM), 0.362 in assay [2] (dose 0.40 uM), 0.342 in assay [2] (dose 2.00 uM) and −0.064 in assay [2] (dose 10.00 uM).
Take `O=C(Nc1cccc(C(F)(F)F)c1)Nc1cc(S(=O)(=O)NC2CC2)ccc1-c1ccsc1` [AGI-6780]: the Dose.FC.LYZ.S in assay [1] (dose 0.08 uM) is 0.095 log2 fold change; in assay [1] (dose 0.40 uM), 0.156 log2 fold change; in assay [1] (dose 2.00 uM), 0.055 log2 fold change; in assay [1] (dose 10.00 uM), −0.054 log2 fold change. The Dose.FC.CTG in the assay with ENR+CD organoids (dose 0.08 uM) is listed as 0.281 log2 fold change; in the assay on ENR+CD organoids (dose 0.40 uM) it was 0.231 log2 fold change; in the assay on ENR+CD organoids (dose 2.00 uM), 0.298 log2 fold change; in the assay on ENR+CD organoids (dose 10.00 uM) it was 0.107 log2 fold change. Further, the “Z.CTG (standard z score)” value came out at 0.671 in the assay with ENR+CD organoids (dose 0.08 uM), 0.551 in the assay with ENR+CD organoids (dose 0.40 uM), 0.713 with ENR+CD organoids (dose 2.00 uM) and 0.256 in the assay on ENR+CD organoids (dose 10.00 uM). Further, the Dose.FC.LYZ.NS in assay [2] (dose 0.08 uM) is on record as 0.069 log2 fold change; in assay [2] (dose 0.40 uM), 0.031 log2 fold change; in assay [2] (dose 2.00 uM), 0.043 log2 fold change; in assay [2] (dose 10.00 uM), −0.090 log2 fold change. Further, the “Z.LYZ.NS (standard z score)” value is listed as 0.597 in assay [2] (dose 0.08 uM), 0.268 in assay [2] (dose 0.40 uM), 0.374 in assay [2] (dose 2.00 uM) and −0.785 in assay [2] (dose 10.00 uM).
As for `CN1CCCCC1Cn1cc(C(=O)c2cc([N+](=O)[O-])ccc2I)c2ccccc21` (centres unmarked) [AM1241], the Dose.FC.LYZ.S in assay [1] (dose 0.08 uM) is given as 0.046 log2 fold change; in assay [1] (dose 0.40 uM), 0.088 log2 fold change; in assay [1] (dose 2.00 uM) it was −0.017 log2 fold change; in assay [1] (dose 10.00 uM), −0.080 log2 fold change. The Dose.FC.CTG with ENR+CD organoids (dose 0.08 uM) was 0.159 log2 fold change; with ENR+CD organoids (dose 0.40 uM) it was −0.054 log2 fold change; in the assay on ENR+CD organoids (dose 2.00 uM) it was −0.062 log2 fold change; in the assay on ENR+CD organoids (dose 10.00 uM), −0.001 log2 fold change. In addition, the “Z.CTG (standard z score)” value in the assay on ENR+CD organoids (dose 0.08 uM) is on record as 0.379; with ENR+CD organoids (dose 0.40 uM), −0.129; in the assay with ENR+CD organoids (dose 2.00 uM) it was −0.147; with ENR+CD organoids (dose 10.00 uM), −0.002. Besides, the Dose.FC.LYZ.NS in assay [2] (dose 0.08 uM) is given as 0.052 log2 fold change; in assay [2] (dose 0.40 uM), 0.004 log2 fold change; in assay [2] (dose 2.00 uM), −0.014 log2 fold change; in assay [2] (dose 10.00 uM), −0.003 log2 fold change. The “Z.LYZ.NS (standard z score)” value in assay [2] (dose 0.08 uM) was 0.454; in assay [2] (dose 0.40 uM) it was 0.035; in assay [2] (dose 2.00 uM), −0.123; in assay [2] (dose 10.00 uM), −0.028.
